Experimental data: patent US6267962A, “Compositions and methods of treatment using peat derivatives” (C-P Technology Limited Partnership, priority 1997, dated 2001)

Test system: psoriasis
Test: Psoriasis, patients 32 and 33
Type: in vivo, human
Details: patient 32; fluocinonide alone on other elbow
Source text: Patient 32 had suffered from psoriasis on their arms and elbows for over 10 years. A 10-30 Kd peat preparation was applied to one elbow twice daily for approximately nine months, with the occasional simultaneous application of fluocinonide cream. Fluocinonide cream alone was used on the other elbow.
Patient 33 had psoriasis that seemed to only manifest itself after an occurrence of strep throat. Their only successful treatment had been with chemotherapeutic agents.

CC(=O)OCC(=O)[C@@]12OC(C)(C)O[C@@H]1C[C@H]1[C@@H]3C[C@H](F)C4=CC(=O)C=C[C@]4(C)[C@@]3(F)[C@@H](O)C[C@@]12C [fluocinonide]
psoriasis of elbow, skin lesions: no decrease in the skin lesions
